The series is described as follows: Solubility of V3 peptides. In kind it is physicochemical. The conditions noted are these: for solubility: 10 percent DMSO in water, estimated by turbidity, read-out: solubility in 10 percent DMSO solution at pH=7.4. The protocol: To obtain cyclic peptides, solutions of the R2 and R2(313-4PM/HI, 325Q/D) V3 35-mers in dimethylsulfoxide (DMSO), 10 mg/ml, were diluted 1:10 in water at room temperature or 37° C. and the pH was adjusted to 8.5 with ammonium hydroxide. These solutions were aerated by bubbling air through the solutions for periods ≧1 hour. Following aeration, the pH was adjusted to 7.4 using hydrochloric acid. A portion of the R2 35-mer peptide precipitated during these procedures. To obtain an approximate quantitation of the amount of R2 V3 35-mer that remained in solution, the turbidity of the suspension was determined at 480 nm wavelength visible light using a spectrophotometer. The spectrophotometer was blanked with a solution of 10 percent DMSO in water, and a standard curve was produced using slurries of known amounts of the 35-mer peptide suspended in water. The amount of precipitate estimated by turbidity was subtracted from the amount of peptide added at the beginning of the preparation procedure to estimate the amount remaining in solution. […] Peptides were sterilized by passage through 0.22μ pore size filters prior to use.

Values after ≈ are worked out from the molar mass of the structure shown. Like-named read-outs stand apart in the source and are kept apart here. Bridge positions count the residues as written; N and C are the ends. Peptide text beside a SMILES is read from it.

Broadly, the solubility is how much of the substance goes into solution per volume. On to `CC[C@H](C)[C@@H]1NC(=O)[C@H](CC(=O)O)NC(=O)CNC(=O)[C@H]([C@@H](C)CC)NC(=O)[C@H]([C@@H](C)CC)NC(=O)[C@H](CCC(N)=O)NC(=O)CNC(=O)[C@H]([C@@H](C)O)NC(=O)[C@H]([C@@H](C)O)NC(=O)[C@H](Cc2ccc(O)cc2)NC(=O)[C@H](Cc2ccccc2)NC(=O)[C@H](C)NC(=O)[C@H](CCCNC(=N)N)NC(=O)CNC(=O)[C@@H]2CCCN2C(=O)CNC(=O)[C@H](CCSC)NC(=O)[C@@H]2CCCN2C(=O)[C@H]([C@@H](C)CC)NC(=O)[C@H](CO)NC(=O)[C@H](CCCCN)NC(=O)[C@H](CCCNC(=N)N)NC(=O)[C@H]([C@@H](C)O)NC(=O)[C@H](CC(N)=O)NC(=O)[C@H](CC(N)=O)NC(=O)[C@H](CC(N)=O)NC(=O)[C@@H]2CCCN2C(=O)[C@H](CCCNC(=N)N)NC(=O)[C@H](CO)NC(=O)[C@@H](N)CSSC[C@@H](C(=O)O)NC(=O)[C@H](Cc2c[nH]cn2)NC(=O)[C@H](C)NC(=O)[C@H](CCC(N)=O)NC(=O)[C@H](CCCNC(=N)N)NC1=O` [cyclic 35-mer R2 V3 peptide] (H-CSRPNNNTRKSIPMGPGRAFYTTGQIIGDIRQAHC-OH; disulfide 1-35; N-terminus and C-terminus assumed), for which the solubility was 850 to 900 µg/mL (≈ 220 to 233 µM) (pH 7.4, processed at 37° C.) and 300 to 350 µg/mL (≈ 77.7 to 90.7 µM) (pH 7.4, processed at room temperature).
Take “CSRPNNNTRKSIPMGPGRAFYTTGQIIGDIRQAHC (Human immunodeficiency virus type 1; R2 strain V3 domain) [R2 V3 35-mer]”: for the setting “water”, the “solubility in water” value was “insoluble in water”.

Source of the values: US7608688B2, “HIV-1 protein associated with broadly reactive neutralizing antibody response” (The Henry M. Jackson Foundation for the Advancement of …, priority 1998, dated 2009).
